Data published in patent publication US8436023B2, “Cyclohexyl-azetidinyl antagonists of CCR2” (Janssen Pharmaceutica N.V., priority 2010, dated 2013).

Molecular target: T1, CCR2 (Homo sapiens, UniProt P41597)
T1 construct: host or cells: THP-1 human monocytic cells
T1 sequence (P41597 1-360 isoform P41597-2): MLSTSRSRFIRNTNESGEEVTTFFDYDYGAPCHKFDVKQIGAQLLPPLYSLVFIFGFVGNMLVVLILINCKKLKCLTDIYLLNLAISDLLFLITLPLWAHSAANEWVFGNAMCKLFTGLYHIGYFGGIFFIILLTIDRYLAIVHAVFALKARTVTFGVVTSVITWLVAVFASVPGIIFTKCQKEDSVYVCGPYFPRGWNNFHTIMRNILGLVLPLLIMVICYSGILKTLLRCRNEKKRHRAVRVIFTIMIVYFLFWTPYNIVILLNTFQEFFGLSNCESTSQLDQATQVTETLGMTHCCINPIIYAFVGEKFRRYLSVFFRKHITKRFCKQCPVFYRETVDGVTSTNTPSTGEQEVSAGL
Test: MCP-1 Receptor Binding Assay in THP-1 Cells
Settings: 0.5 nM 125I labeled MCP-1, 2 hours at 30° C., less polar isomer tested where stated, read-out: Inhibition of MCP-1 Binding IC50, CCR2 Binding
Method: MCP-1 Receptor Binding Assay in THP-1 Cells
Human monocytic cell line THP-1 cells were obtained from American Type Culture Collection (Manassas, Va., USA). The THP-1 cells were grown in RPMI-1640 (RPMI: Roswell Park Memorial Institute Medium-cell culture growth media) supplemented with 10% fetal bovine serum in a humidified 5% CO2 atmosphere at 37° C. The cell density was maintained […].
THP-1 (cells were incubated with 0.5 nM ^125I labeled MCP-1 (Perkin-Elmer Life Sciences, Inc. Boston, Mass.) in the presence of varying concentrations of either unlabeled MCP-1 (R & D Systems, Minneapolis, Minn.) or test compound for 2 hours at 30° C. in a 96 well plate. Cells were then harvested onto a filter plate, dried, and 20 μL of Microscint 20 was added to each well. Plates were counted in a TopCount NXT, Microplate Scintillation & Luminescence Counter (Perkin-Elmer Life Sciences, Inc. Boston, Mass.). Blank values (buffer only) were subtracted from all values and drug treated values were compared to vehicle treated values. 1 μM cold MCP-1 was used for nonspecific binding.
Where an IC50 value was not obtained for a particular compound, the percent inhibition is provided at a test concentration of 25 μM.

| IC50 [nM] | Structure (SMILES) |
| --- | --- |
| 34 | CCOc1ccc(C2(O)CCC(N3CC(NC(=O)CNc4nn(C(=O)NC(C)(C)C)c5ccc(C(F)(F)F)cc45)C3)CC2)cn1 (stereo not drawn) [Example 82, 3-[({1-[4-(6-Ethoxy-pyridin-3-yl)-4-hydroxy-cyclohexyl]-azetidin-3-ylcarbamoyl}-methyl)-amino]-5-trifluoromethyl-indazole-1-carboxylic acid tert-butylamide] |
| 750 | CC(C)(C)NC(=O)n1nc(NCC(=O)NC2CN(C3CCC(C#N)CC3)C2)c2cc(C(F)(F)F)ccc21 (stereo not drawn) [Example 86, 3-({[1-(4-Cyano-cyclohexyl)-azetidin-3-ylcarbamoyl]-methyl}-amino)-5-trifluoromethyl-indazole-1-carboxylic acid tert-butylamide] |
| 29 | NC(=O)n1nc(NCC(=O)NC2CN(C3CCC(O)(c4nccs4)CC3)C2)c2cc(C(F)(F)F)ccc21 (stereo not drawn) [Example 81, 3-({[1-(4-Hydroxy-4-thiazol-2-yl-cyclohexyl)-azetidin-3-ylcarbamoyl]-methyl}-amino)-5-trifluoromethyl-indazole-1-carboxylic acid amide] |
| 270 | COc1cccc(C2(O)CCC(N3CC(NC(=O)CNc4nn(Cc5ccccc5)c5ccc(C(F)(F)F)cc45)C3)CC2)n1 (stereo not drawn) [Example 96, 2-(1-Benzyl-5-trifluoromethyl-1H-indazol-3-ylamino)-N-{1-[4-hydroxy-4-(6-methoxy-pyridin-2-yl)-cyclohexyl]-azetidin-3-yl}-acetamide] |
| 71 | CCOC(=O)C1CCC(N2CC(NC(=O)CNc3noc4ccc(OC(F)(F)F)cc34)C2)CC1 (stereo not drawn) [Example 16, 4-{3-[2-(5-Trifluoromethoxy-benzo[d]isoxazol-3-ylamino)-acetylamino]-azetidin-1-yl}-cyclohexanecarboxylic acid ethyl ester] |
| 14 | COc1ccc(C2CCC(N3CC(NC(=O)CNc4nn(C(=O)NC(C)C)c5ccc(C(F)(F)F)cc45)C3)CC2)cn1 (stereo not drawn) [Example 91, 3-[({1-[4-(6-Methoxy-pyridin-3-yl)-cyclohexyl]-azetidin-3-ylcarbamoyl}-methyl)-amino]-5-trifluoromethyl-indazole-1-carboxylic acid isopropylamide] |
| 390 | CCC1CCC(N2CC(NC(=O)CNc3noc4ccc(C(F)(F)F)cc34)C2)CC1 (stereo not drawn) [Example 12, N-[1-(4-Ethyl-cyclohexyl)-azetidin-3-yl]-2-(5-trifluoromethyl-benzo[d]isoxazol-3-ylamino)-acetamide] |
| 7700 | CC(C)(C)[Si](C)(C)OC1CCC(N2CC(NC(=O)CNc3noc4ccc(C(F)(F)F)cc34)C2)CC1 (stereo not drawn) [Example 8, N-{1-[4-(tert-Butyl-dimethyl-silanyloxy)-cyclohexyl]-azetidin-3-yl}-2-(5-trifluoromethyl-benzo[d]isoxazol-3-ylamino)-acetamide] |
| 31 | O=C(CNc1n[nH]c2ccc(C(F)(F)F)cc12)NC1CN(C2CCC(O)(c3cccnc3)CC2)C1 (stereo not drawn) [Example 41, N-[1-(4-Hydroxy-4-pyridin-3-yl-cyclohexyl)-azetidin-3-yl]-2-(5-trifluoromethyl-1H-indazol-3-ylamino)-acetamide] |
| 300 | Cn1nc(NCC(=O)NC2CN(C3CCC(c4ccc5c(c4)OCO5)CC3)C2)c2cc(C(O)C(F)(F)F)ccc21 (stereo not drawn) [Example 64, N-[1-(4-Benzo[1,3]dioxol-5-yl-cyclohexyl)-azetidin-3-yl]-2-[1-methyl-5-(2,2,2-trifluoro-1-hydroxy-ethyl)-1H-indazol-3-ylamino]-acetamide] |
| 340 | CC(C)C1CCC(N2CC(NC(=O)CNc3nn(C)c4ccc(OC(F)(F)F)cc34)C2)CC1 (stereo not drawn) [Example 59] |
| 37 | Cn1nc(NCC(=O)NC2CN(C3CCC(O)(c4nccs4)CC3)C2)c2cc(C(F)C(F)(F)F)ccc21 (stereo not drawn) [Example 66, N-[1-(4-Hydroxy-4-thiazol-2-yl-cyclohexyl)-azetidin-3-yl]-2-[1-methyl-5-(1,2,2,2-tetrafluoro-ethyl)-1H-indazol-3-ylamino]-acetamide] |
| 56 | Cn1nc(NCC(=O)NC2CN(C3CCC(O)(c4cccnc4)CC3)C2)c2cc(C(F)(F)F)ccc21 (stereo not drawn) [Example 19, N-[1-(4-Hydroxy-4-pyridin-3-yl-cyclohexyl)-azetidin-3-yl]-2-(1-methyl-5-trifluoromethyl-1H-indazol-3-ylamino)-acetamide] |
| 87 | CC(C)(C)OC(=O)NC1CCC(N2CC(NC(=O)CNc3n[nH]c4ccc(C(F)(F)F)cc34)C2)CC1 (stereo not drawn) [Example 51, (4-{3-[2-(5-Trifluoromethyl-1H-indazol-3-ylamino)-acetylamino]-azetidin-1-yl}-cyclohexyl)-carbamic acid tert-butyl ester] |
| 730 | CCn1nc(NCC(=O)NC2CN(C3CCC(C(C)C)CC3)C2)c2cc(C(F)(F)F)ccc21 (stereo not drawn) [Example 71, 2-(1-Ethyl-5-trifluoromethyl-1H-indazol-3-ylamino)-N-[1-(4-isopropyl-cyclohexyl)-azetidin-3-yl]-acetamide] |
| 60 | COc1ccc(C2(O)CCC(N3CC(NC(=O)CNc4nn(C)c5ccc(OC(F)(F)F)cc45)C3)CC2)cn1 (stereo not drawn) [Example 57] |
| 44 | Cn1nc(NCC(=O)NC2CN(C3CCC(CO)CC3)C2)c2cc(C(F)(F)F)ccc21 (stereo not drawn) [Example 33, N-[1-(4-Hydroxymethyl-cyclohexyl)-azetidin-3-yl]-2-(1-methyl-5-trifluoromethyl-1H-indazol-3-ylamino)-acetamide] |
| 36 | O=C(CNc1noc2ccc(C(F)(F)F)cc12)NC1CN(C2CCC(c3ccc4c(c3)OCO4)CC2)C1 (stereo not drawn) [Example 1, N-[1-(4-Benzo[1,3]dioxol-5-yl-cyclohexyl)-azetidin-3-yl]-2-(5-trifluoromethyl-benzo[d]isoxazol-3-ylamino)-acetamide] |
| 75 | CC(C)(C)NC(=O)n1nc(NCC(=O)NC2CN(C3CCC(O)(c4nccs4)CC3)C2)c2cc(C(F)(F)F)ccc21 (stereo not drawn) [Example 80, 3-({[1-(4-Hydroxy-4-thiazol-2-yl-cyclohexyl)-azetidin-3-ylcarbamoyl]-methyl}-amino)-5-trifluoromethyl-indazole-1-carboxylic acid tert-butylamide] |
| 56 | CCOC(=O)C1CCC(N2CC(NC(=O)CNc3nn(C(N)=O)c4ccc(C(F)(F)F)cc34)C2)CC1 (stereo not drawn) [Example 89, 4-{3-[2-(1-Carbamoyl-5-trifluoromethyl-1H-indazol-3-ylamino)-acetylamino]-azetidin-1-yl}-cyclohexane carboxylic acid ethyl ester] |
| 150 | Cn1nc(NCC(=O)NC2CN(C3CCC(C#N)CC3)C2)c2cc(C(F)(F)F)ccc21 (stereo not drawn) [Example 38, N-[1-(4-Cyano-cyclohexyl)-azetidin-3-yl]-2-(1-methyl-5-trifluoromethyl-1H-indazol-3-ylamino)-acetamide] |
| 380 | Cn1nc(NCC(=O)NC2CN(C3CCC(C(N)=O)CC3)C2)c2cc(C(F)(F)F)ccc21 (stereo not drawn) [Example 39, 4-{3-[2-(1-Methyl-5-trifluoromethyl-1H-indazol-3-ylamino)-acetylamino]-azetidin-1-yl}-cyclohexane carboxylic acid amide] |
| 8.4 | CCn1nc(NCC(=O)NC2CN(C3CCC(O)(c4cncs4)CC3)C2)c2cc(C(F)(F)F)ccc21 (stereo not drawn) [Example 67, 2-(1-Ethyl-5-trifluoromethyl-1H-indazol-3-ylamino)-N-[1-(4-hydroxy-4-thiazol-5-yl-cyclohexyl)-azetidin-3-yl]-acetamide] |
| 76 | Cn1nc(NCC(=O)NC2CN(C3CCC(NC(=O)OC(C)(C)C)CC3)C2)c2cc(C(F)(F)F)ccc21 (stereo not drawn) [Example 31, (4-{3-[2-(1-Methyl-5-trifluoromethyl-1H-indazol-3-ylamino)-acetylamino]-azetidin-1-yl}-cyclohexyl)-carbamic acid tert-butyl ester] |
| 1600 | CC(C)NC(=O)n1nc(NCC(=O)NC2CN(C3CCC(C(C)C)CC3)C2)c2cc(C(F)(F)F)ccc21 (stereo not drawn) [Example 92, 3-({[1-(4-Isopropyl-cyclohexyl)-azetidin-3-ylcarbamoyl]-methyl}-amino)-5-trifluoromethyl-indazole-1-carboxylic acid isopropylamide] |
| 31 | Cc1cnc(C2(O)CCC(N3CC(NC(=O)CNc4nn(CCO)c5ccc(C(F)(F)F)cc45)C3)CC2)s1 (stereo not drawn) [Example 77, 2-[1-(2-Hydroxy-ethyl)-5-trifluoromethyl-1H-indazol-3-ylamino]-N-{1-[4-hydroxy-4-(5-methyl-thiazol-2-yl)-cyclohexyl]-azetidin-3-yl}-acetamide] |
| 28 | Cn1nc(NCC(=O)NC2CN(C3CCC(O)(c4cncs4)CC3)C2)c2cc(C(F)(F)F)ccc21 (stereo not drawn) [Example 21, N-[1-(4-Hydroxy-4-thiazol-5-yl-cyclohexyl)-azetidin-3-yl]-2-(1-methyl-5-trifluoromethyl-1H-indazol-3-ylamino)-acetamide] |
